The NIST ThermoML archive (doi:10.1016/j.tca.2013.04.021)
Numbers after ± are expanded uncertainties.

Test: not given
Conditions: Crystal; DTA

SMILES	Normal melting temperature [°C]
CCN(C(=O)N(CC)c1ccccc1)c1ccccc1 [1,3-diethyl-1,3-diphenylurea]	71.87 ± 1.1
CN(C(=O)N(C)c1ccccc1)c1ccccc1 [1,3-dimethyl-1,3-diphenylurea]	120.00 ± 1.1
CC(=O)OCCNc1ccc([N+](=O)[O-])cc1 [2-[(4-nitrophenyl)amino]ethanol 1-acetate]	113.87 ± 1.1
CCNc1ccc([N+](=O)[O-])cc1 [N-ethyl-4-nitroaniline]	95.06 ± 1.1
c1ccc(Nc2ccccc2)cc1 [diphenylamine]	53.50 ± 1.1

Test: Molar enthalpy of transition or fusion
Conditions: Crystal; DSC

SMILES	Molar enthalpy of transition or fusion [kcal/mol]
CCN(C(=O)N(CC)c1ccccc1)c1ccccc1 [1,3-diethyl-1,3-diphenylurea]	8.01 ± 0.215
CN(C(=O)N(C)c1ccccc1)c1ccccc1 [1,3-dimethyl-1,3-diphenylurea]	7.91 ± 0.215
CC(=O)OCCNc1ccc([N+](=O)[O-])cc1 [2-[(4-nitrophenyl)amino]ethanol 1-acetate]	4.97 ± 0.191
CCNc1ccc([N+](=O)[O-])cc1 [N-ethyl-4-nitroaniline]	5.43 ± 0.191
c1ccc(Nc2ccccc2)cc1 [diphenylamine]	4.71 ± 0.167
